The text below walks through data of patent US10059667B2, “Antidiabetic compounds” (MERCK SHARP & DOHME CORP., priority 2014, dated 2018).

By EC50 is commonly meant the midpoint of the concentration-response curve.

Holding throughout (type): cell-based
Test [1] concerns the target T1, Human GPR40 (Homo sapiens (Human), UniProt O14842). The test is described as follows: Inositol Phosphate Turnover (IP1) Assay 2, HEK cells stably expressing human GPR40, CisBio IP-One kit. Conditions: HEK cells stably expressing human GPR40, 384-well. As for the experimental part:
(§1) Human and mouse GPR40 stable cell-lines were generated in CHO cells stably expressing NFAT BLA (Beta-lactamase). A human GPR40 stable cell-line was generated in HEK cells stably expressing the aequorin expressing reporter. The expression plasmids were transfected using lipofectamine (Life Technologies) following manufacturer's instructions. Stable cell-lines were generated following drug selection.
The assay was performed in 384-well format. HEK cells stably expressing human GPR40 were plated at 15,000 cells per well in growth medium (DMEM/10% fetal calf serum). Cell plates were then incubated 16 hours at 37 degrees in a 5% CO2 incubator.
Measurement of Inositol Phosphate Turnover (IP1) was performed using the CisBio IP-One kit (Part number 62IPAPEB). After the 16 hour incubation, the cells were washed with HEPES buffer and 10 ul of stimulation buffer (prepared as described in the kit) was added to each well. In a separate plate, compounds were diluted in DMSO (400-fold over the final concentration in the assay well) and 25 nl was acoustically transferred to the appropriate well in the assay cell plate.
The plates were then incubated for 60 minutes at 37 degrees. 10 ul of detection buffer (also prepared as described in the IP-One kit) was added to each well and the plates were incubated for 60 minutes in the dark. The plates were then read in a Perkin Elmer EnVision or equivalent reader able to measure FRET. Fluorescent ratio of emission at 665 and 620 nm was then converted to IP1 concentration by back calculating from an IP1 standard curve prepared at the time of the assay.

The target of test [2] is T1, Human GPR40. Description: Inositol Phosphate Turnover (IP1) Assay 1, HEK cells stably expressing human GPR40, 3H-inositol SPA. Conditions: HEK cells stably expressing human GPR40, 96-well. A digest of the protocol:
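HEK cells stably expressing human GPR40, labelled 18 h with 3H-myo-inositol in inositol-free medium with 0.4% human or mouse albumin. LiCl added 20 min at 37 degrees, then compound 60 min at 37 degrees; formic acid lysates counted by YSi SPA beads for inositol phosphates.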

Test [3] addresses T1, Human GPR40. The test is described as follows: FLIPR assay, agonist-induced calcium mobilization in GPR40/CHO NFAT BLA cells. As for the experimental part:
as §1
FLIPR (Fluorimetric Imaging Plate Reader, Molecular Devices) assays were performed to measure agonist-induced calcium mobilization of the stable clones. For the FLIPR assay, one day before assay, GPR40/CHO NFAT BLA cells were seeded into black-wall-clear-bottom 384-well plates (Costar) at 1.4×10e4 cells/20 μL medium/well. The cells were incubated with 20 μl/well of the assay buffer (HBSS, 0.1% BSA, 20 mM HEPES, 2.5 mM probenecid, pH 7.4) containing 8 μM fluo-4, AM, 0.08% pluronic acid at room temperature for 100 minutes. Fluorescence output was measured using FLIPR. Compounds were dissolved in DMSO and diluted to desired concentrations with assay buffer. 13.3 μL/well of compound solution was added.
(Calcium flux is commonly read through the fluorescence of an indicator in the cells.)

T1 sequence (O14842 whole entry): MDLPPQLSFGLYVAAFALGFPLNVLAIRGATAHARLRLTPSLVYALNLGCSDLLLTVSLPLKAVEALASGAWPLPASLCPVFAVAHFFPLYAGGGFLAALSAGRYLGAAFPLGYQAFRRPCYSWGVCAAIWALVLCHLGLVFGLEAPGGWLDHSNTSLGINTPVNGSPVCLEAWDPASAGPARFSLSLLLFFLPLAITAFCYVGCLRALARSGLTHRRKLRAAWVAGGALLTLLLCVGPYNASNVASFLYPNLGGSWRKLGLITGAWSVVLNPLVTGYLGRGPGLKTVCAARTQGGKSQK

On to `COc1cc(C2CC(COc3cccc([C@H](C4CC4)[C@H](C)C(=O)O)c3)C2)c(F)cn1` (stereo partly shown) [Example 87], for which the concentration for a half-maximal effect (EC50) on Human GPR40 [1] is 13 nM; on Human GPR40 [2], 23 nM.
The molecule `COc1cc(C2CC(COc3cccc([C@H](C4CC4)[C@H](C)C(=O)O)c3)C2)c(F)cn1` (single isomer, unassigned) [Example 91] registered a half-maximal effective concentration (EC50) on Human GPR40 [1] of 7.4 nM.
On the same count and under the same terms, with `COc1cc(C2CC(COc3cccc([C@H](C4CC4)[C@H](C)C(=O)O)c3)C2)c(F)cn1` (single isomer, unassigned) [Example 90] the figure was 96 nM.
For the molecule `CC(c1cc(Cl)ccc1Cl)N1CC(COc2cccc([C@@H](CC(=O)O)C3CC3)c2)C1` (stereo partly shown) [Example 56], the concentration for a half-maximal effect (EC50) on Human GPR40 [3] was determined as 23 nM; at Human GPR40 [2] it was 347 nM.
In the same order, the values of `O=C(O)C[C@H](c1cccc(OCC2(F)CN(Cc3cc(C(F)(F)F)ccc3C(F)(F)F)C2)c1)C1CC1` [Example 11, (S)-3-(3-((1-(2,5-Bis(trifluoromethyl)benzyl)-3-fluoroazetidin-3-yl)methoxy)phenyl)-3-cyclopropylpropanoic acid] are 22 nM and 967 nM.
The matching figures for `CC(c1ccccc1Cl)N1CC(COc2cccc([C@@H](CC(=O)O)C3CC3)c2)C1` (stereo partly shown) [Example 52]: 162 nM and 5640 nM.
